# From patent US20120040951A1, “HETEROARYL COMPOUNDS USEFUL AS RAF KINASE INHIBITORS” (priority 2008, published 2012)
# Test system: phospho-ERK in melanoma derived WM-266-4 cells
# Test: Mechanistic cellular assay for Raf kinase activity (phospho-ERK, Bio-Plex)
# Format: cell-based
# Details: Homo sapiens, treated 1-2 hr at 37° C., serum free medium, read-out: pERK EC50
# How it was run: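 WM-266-4 melanoma cells (wild-type/V600D BRaf) grown overnight in 10% FBS RPMI, then treated 1–2 h at 37 °C in serum-free RPMI with eight 3-fold dilutions of compound (from 5 mM DMSO stock, 1000× dilution). Lysate phospho-ERK1,2 quantified by Bio-Plex bead immunoassay.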
row,Structure (SMILES),EC50 [nM]
1,"C[C@@H](NC(=O)c1cc2c(cn1)ncn2C)c1cnc(Nc2ccc(C(F)(F)F)cc2)cn1 (single isomer, unassigned) [Example 37]",≤ 100
2,"C[C@@H](NC(=O)c1cc2c(cn1)ncn2C1CCC1)c1cnc(Nc2ccc(C(F)(F)F)cc2)cn1 (single isomer, unassigned) [Example 188]",≤ 100
3,"C[C@@H](NC(=O)c1cc2c(cn1)ncn2C)c1cnc(Nc2ccc(C(F)(F)F)nc2)s1 (single isomer, unassigned) [Example 266]",1000 to 10000
4,"C[C@H](NC(=O)c1cc2c(cn1)ncn2C)c1cnc(Nc2ccc(C(F)(F)F)nc2)s1 (single isomer, unassigned) [Example 267]",≤ 100
5,CCN1CC(n2cnc3cnc(C(=O)N[C@H](C)c4cnc(Nc5ccc(C(F)(F)F)cc5)cn4)cc32)C1 (stereo in doubt) [Example 180],100 to 1000
6,CC(NC(=O)c1cc2ncn(C)c2cn1)c1cnc(Nc2ccc(C(F)(F)F)cc2)s1 (stereo not shown) [Example 1],1000 to 10000
7,CC(NC(=O)c1cc2c(cn1)ncn2C)c1cnc(Nc2ccc(C(F)(F)F)cc2)s1 (stereo not shown) [Example 2],≤ 100
8,C[C@H](NC(=O)c1cc2c(cn1)ncn2C)c1cnc(Nc2ccc(C(F)(F)F)cc2)s1 [Example 3],1000 to 10000
9,CC(NC(=O)c1cc2c(cn1)ncn2C)c1cnc(Nc2ccc(C3COC3)cc2)cn1 (stereo not shown) [Example 281],1000 to 10000
10,CCn1cnc2cnc(C(=O)NC(C)c3cnc(Nc4ccc(C(F)(F)F)cn4)cn3)cc21 (stereo not shown) [Example 284],100 to 1000
11,CCN1CC(n2cnc3cnc(C(=O)NC(C)c4cnc(Nc5cnc(C(C)(C)C)nc5)s4)cc32)C1 (stereo not shown) [Example 288],100 to 1000
12,CC(NC(=O)c1cc2c(cn1)nc(N)n2C)c1cnc(Nc2ccc(C(F)(F)F)nc2)s1 (stereo not shown) [Example 293],100 to 1000
13,CCN1CC(n2cnc3cnc(C(=O)NC(C)c4cnc(Nc5ccc(C(F)(F)F)nc5)s4)cc32)C1 (stereo not shown) [Example 294],100 to 1000
14,CC(NC(=O)c1cn2c(Br)cnc2cn1)c1cnc(Nc2ccc(C(F)(F)F)cc2)s1 (stereo not shown) [Example 297],≤ 100
15,CC(NC(=O)c1cn2c(NC(C)(C)CC(C)(C)C)cnc2cn1)c1ncc(Nc2ccc(C(F)(F)F)cc2)s1 (stereo not shown) [Example 301],1000 to 10000
16,CC(NC(=O)c1cn2c(N)cnc2cn1)c1ncc(Nc2ccc(C(F)(F)F)cc2)s1 (stereo not shown) [Example 302],100 to 1000
17,CCNc1cnc2cnc(C(=O)NC(C)c3ncc(Nc4ccc(C(F)(F)F)cc4)s3)cn12 (stereo not shown) [Example 303],100 to 1000
18,CCN(CC)c1cnc2cnc(C(=O)NC(C)c3ncc(Nc4ccc(C(F)(F)F)cc4)s3)cn12 (stereo not shown) [Example 304],100 to 1000
19,Cc1nc2cnc(C(=O)NC(C)c3ncc(Nc4ccc(C(F)(F)F)cc4)s3)cn2c1N (stereo not shown) [Example 305],100 to 1000
20,CCc1nc2cnc(C(=O)NC(C)c3ncc(Nc4ccc(C(F)(F)F)cc4)s3)cn2c1NC(C)(C)CC(C)(C)C (stereo not shown) [Example 306],1000 to 10000
21,CCc1nc2cnc(C(=O)NC(C)c3ncc(Nc4ccc(C(F)(F)F)cc4)s3)cn2c1N (stereo not shown) [Example 307],1000 to 10000
22,Cc1nc2cnc(C(=O)NC(C)c3ncc(Nc4ccc(C(F)(F)F)cc4)s3)cn2c1Cl (stereo not shown) [Example 308],1000 to 10000
23,C[C@@H](NC(=O)c1cnc2cnccn12)c1ncc(C(=O)Nc2cc(C(F)(F)F)c(Cl)cn2)s1 [Example 312],≤ 100
24,CC(NC(=O)c1cnc2n1CCN(C(=O)OC(C)(C)C)C2)c1cnc(Nc2ccc(C(F)(F)F)cc2)s1 (stereo not shown) [Example 313],1000 to 10000
25,CC(NC(=O)c1cnc2n1CCNC2)c1cnc(Nc2ccc(C(F)(F)F)cc2)s1 (stereo not shown) [Example 314],100 to 1000
26,C[C@@H](NC(=O)c1cnc2n1CCNC2)c1ncc(C(=O)Nc2cc(C(F)(F)F)c(Cl)cn2)s1 [Example 315],100 to 1000
27,CC(NC(=O)c1cnn2cc(Br)ccc12)c1ncc(C(=O)Nc2cc(C(F)(F)F)c(Cl)cn2)s1 (stereo not shown) [Example 319],100 to 1000
28,CC(NC(=O)c1cnn2cc(-c3ccncc3)ccc12)c1ncc(C(=O)Nc2cc(C(F)(F)F)c(Cl)cn2)s1 (stereo not shown) [Example 321],≤ 100
29,CC(NC(=O)c1cnn2cc(-c3ccc(F)nc3)ccc12)c1ncc(C(=O)Nc2cc(C(F)(F)F)c(Cl)cn2)s1 (stereo not shown) [Example 322],100 to 1000
30,CC(NC(=O)c1cnn2cc(-c3ccc(N4CCOCC4)nc3)ccc12)c1ncc(C(=O)Nc2cc(C(F)(F)F)c(Cl)cn2)s1 (stereo not shown) [Example 323],≤ 100

# Now from value to compound:
row,EC50 [nM],Structure (SMILES)
1,100 to 1000,CC(NC(=O)c1cnn2cc(-c3cccnc3F)ccc12)c1nc(C(=O)Nc2cc(C(F)(F)F)c(Cl)cn2)cs1 (stereo not shown) [Example 324]
2,100 to 1000,CC(NC(=O)c1cnn2cc(-c3cc(F)nc(F)c3)ccc12)c1nc(C(=O)Nc2cc(C(F)(F)F)c(Cl)cn2)cs1 (stereo not shown) [Example 325]
3,100 to 1000,CC(NC(=O)c1cnn2cc(-c3ccnc(F)c3)ccc12)c1nc(C(=O)Nc2cc(C(F)(F)F)c(Cl)cn2)cs1 (stereo not shown) [Example 326]
4,≤ 100,CC(NC(=O)c1cnn2cc(-c3cnc(N)nc3)ccc12)c1ncc(C(=O)Nc2cc(C(F)(F)F)c(Cl)cn2)s1 (stereo not shown) [Example 327]
5,≤ 100,CC(NC(=O)c1cnn2cc(-c3cncnc3)ccc12)c1ncc(C(=O)Nc2cc(C(F)(F)F)c(Cl)cn2)s1 (stereo not shown) [Example 328]
6,≤ 100,CC(NC(=O)c1cnn2cc(-c3cncc(F)c3)ccc12)c1ncc(C(=O)Nc2cc(C(F)(F)F)c(Cl)cn2)s1 (stereo not shown) [Example 329]
7,100 to 1000,COc1cc(-c2ccc3c(C(=O)NC(C)c4ncc(C(=O)Nc5cc(C(F)(F)F)c(Cl)cn5)s4)cnn3c2)ccn1 (stereo not shown) [Example 330]
8,≤ 100,C[C@@H](NC(=O)c1cnc2n1CCCC2)c1ncc(C(=O)Nc2cc(C(F)(F)F)c(Cl)cn2)s1 [Example 335]
9,≤ 100,C[C@@H](NC(=O)c1cnc2n1CCC2)c1ncc(C(=O)Nc2cc(C(F)(F)F)c(Cl)cn2)s1 [Example 336]
10,100 to 1000,COc1cn2ncnc(C(=O)NC(C)c3cnc(Nc4ccc(C(F)(F)F)cc4)s3)c2c1C (stereo not shown) [Example 337]
11,≤ 100,CCS(=O)(=O)N1CC(n2cnc3cnc(C(=O)N[C@H](C)c4cnc(Nc5ccc(C(F)(F)F)cc5)cn4)cc32)C1 [Example 342]
12,≤ 100,CC(C)S(=O)(=O)N1CC(n2cnc3cnc(C(=O)N[C@H](C)c4cnc(Nc5ccc(C(F)(F)F)cc5)cn4)cc32)C1 [Example 343]
13,100 to 1000,C[C@@H](NC(=O)c1cc2c(cn1)ncn2C1CN(S(=O)(=O)CC(F)(F)F)C1)c1cnc(Nc2ccc(C(F)(F)F)cc2)cn1 [Example 344]
14,≤ 100,C[C@@H](NC(=O)c1cc2c(cn1)ncn2C1CN(S(C)(=O)=O)C1)c1cnc(Nc2ccc(C(F)(F)F)cc2)cn1 [Example 345]
15,1000 to 10000,C[C@@H](NC(=O)c1cc2c(cn1)ncn2C1CN(CC(=O)O)C1)c1cnc(Nc2ccc(C(F)(F)F)cc2)s1 [Example 349]
16,1000 to 10000,CC(NC(=O)c1cc2c(cn1)ncn2CC(N)=O)c1cnc(Nc2ccc(C(F)(F)F)cc2)s1 (stereo not shown) [Example 355]
17,1000 to 10000,CC(NC(=O)c1cc2c(cn1)ncn2C)c1cnc(Nc2cc(CN(C)C)cc(C(F)(F)F)c2)s1 (stereo not shown) [Example 357]

# Target: V599E Raf (Homo sapiens, UniProt P15056, V600E)
# Test: Biochemical FRET assay, mutant Raf (phosphorylation of MEK)
# Details: 0.125 nM V599E Raf, 100 nM biotin-MEK, 25 μM ATP, read-out: Raf (mut) inhibition
# Method: (1) Biochemical FRET Assay […]
# Inhibitors were diluted 4-fold in 100% DMSO and added to a final concentration of 10 μM to 40 μM to a solution containing 100 nM biotin-MEK, 0.125 nM V599E Raf in 50 mM HEPES, pH 7.4, 60 mM NaCl, 3 mM MgCl2, 2 mM DTT, 0.25 mM MnCl2, 0.01% BSA, and 0.01% Tween-20 and incubated for 20 minutes at room temperature. The kinase reaction was started by the addition of 25 μM ATP to a final volume of 45 μl and allowed to progress for 60 minutes. The reaction was stopped with 15 mM EDTA and 20 nM Streptavidin-APC, 2.5 nM Polyclonal anti p-MEK1/2 (Ser217/221), 2.5 nM Eu-labeled anti-rabbit IgG were added in Lance detection buffer and 5% Superblock in PBS for a final volume of 100 μl. The detection reaction was incubated for 90 minutes at room temperature and then read on an Analyst plate reader using standard TR-FRET (time resolved fluorescence resonance energy transfer) settings for Eu and APC.
# Compounds having an activity designated as “A” provided an IC50≦100 nM; compounds having an activity designated as “B” provided an IC50 of 100-1000 nM; and compounds having an activity designated as “C” provided an IC50 of 1000-10,000 nM.
# V599E Raf, sequence (P15056 whole entry V600E): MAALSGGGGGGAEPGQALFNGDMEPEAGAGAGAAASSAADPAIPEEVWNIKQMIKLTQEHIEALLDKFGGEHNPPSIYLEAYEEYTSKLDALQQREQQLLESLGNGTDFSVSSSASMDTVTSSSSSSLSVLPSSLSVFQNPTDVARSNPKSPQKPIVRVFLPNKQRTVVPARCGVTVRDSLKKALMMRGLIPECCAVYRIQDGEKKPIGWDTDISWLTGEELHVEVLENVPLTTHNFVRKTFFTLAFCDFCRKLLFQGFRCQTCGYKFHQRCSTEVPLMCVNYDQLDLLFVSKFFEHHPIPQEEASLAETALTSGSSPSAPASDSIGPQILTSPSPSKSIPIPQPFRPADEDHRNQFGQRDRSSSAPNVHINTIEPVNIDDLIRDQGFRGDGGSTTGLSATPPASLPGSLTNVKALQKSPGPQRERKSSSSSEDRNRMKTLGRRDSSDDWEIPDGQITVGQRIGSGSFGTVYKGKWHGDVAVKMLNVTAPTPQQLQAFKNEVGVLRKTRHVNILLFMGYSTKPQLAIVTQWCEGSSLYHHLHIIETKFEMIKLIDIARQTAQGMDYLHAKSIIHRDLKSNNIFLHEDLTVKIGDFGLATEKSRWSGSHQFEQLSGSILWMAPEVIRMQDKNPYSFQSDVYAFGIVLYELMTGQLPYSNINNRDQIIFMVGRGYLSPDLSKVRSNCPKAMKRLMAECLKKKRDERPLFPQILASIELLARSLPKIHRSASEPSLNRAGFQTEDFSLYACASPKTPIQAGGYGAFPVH
row,Structure (SMILES),IC50 [nM]
1,"C[C@@H](NC(=O)c1cc2c(cn1)ncn2C)c1cnc(Nc2ccc(C(F)(F)F)cc2)cn1 (single isomer, unassigned) [Example 37]",≤ 100
2,"C[C@@H](NC(=O)c1cc2c(cn1)ncn2C1CCC1)c1cnc(Nc2ccc(C(F)(F)F)cc2)cn1 (single isomer, unassigned) [Example 188]",≤ 100
3,"C[C@@H](NC(=O)c1cc2c(cn1)ncn2C)c1cnc(Nc2ccc(C(F)(F)F)nc2)s1 (single isomer, unassigned) [Example 266]",100 to 1000
4,"C[C@H](NC(=O)c1cc2c(cn1)ncn2C)c1cnc(Nc2ccc(C(F)(F)F)nc2)s1 (single isomer, unassigned) [Example 267]",≤ 100
5,CCN1CC(n2cnc3cnc(C(=O)N[C@H](C)c4cnc(Nc5ccc(C(F)(F)F)cc5)cn4)cc32)C1 (stereo in doubt) [Example 180],≤ 100
6,CC(NC(=O)c1cc2ncn(C)c2cn1)c1cnc(Nc2ccc(C(F)(F)F)cc2)s1 (stereo not shown) [Example 1],≤ 100
7,CC(NC(=O)c1cc2c(cn1)ncn2C)c1cnc(Nc2ccc(C(F)(F)F)cc2)s1 (stereo not shown) [Example 2],≤ 100
8,C[C@H](NC(=O)c1cc2c(cn1)ncn2C)c1cnc(Nc2ccc(C(F)(F)F)cc2)s1 [Example 3],≤ 100
9,C[C@@H](NC(=O)c1cnn2ccccc12)c1cc(C(=O)Nc2nc3ccc(F)cc3s2)on1 [Example 210],100 to 1000
10,C[C@@H](NC(=O)c1cnn2ccccc12)c1cc(C(=O)NC2C[C@@H]3CC[C@H]2C3)on1 (stereo partly shown) [Example 213],1000 to 10000
11,C[C@@H]1[C@]2(C)CC[C@@]1(C)[C@@H](NC(=O)c1cc([C@@H](C)NC(=O)c3cnn4ccccc34)no1)C2 [Example 215],1000 to 10000
12,C[C@@H](NC(=O)c1cnn2ccccc12)c1cc(C(=O)NC2CC(C)(C)NC(C)(C)C2)on1 [Example 216],1000 to 10000
13,C[C@@H](NC(=O)c1cnn2ccccc12)c1cc(C(=O)Nc2nc(C(C)(C)C)ncc2N)no1 [Example 228],100 to 1000
14,Cc1ccc(NC(=O)c2cc(C(C)(C)NC(=O)c3cnn4ccccc34)on2)cc1C(F)(F)F [Example 230],100 to 1000
